The NIST ThermoML archive (doi:10.1021/je500594z)
± gives the expanded uncertainty stated by the source.

Columns and labels:
[1] = 101 kPa, Liquid; for viscosity: Falling or rolling sphere viscometry; for speed of sound: Sing-around technique in a fixed-path interferometer; for mass density: Vibrating tube method
[2] = xn = mol fraction of the nth substance listed; conditions: 101 kPa, Liquid, x2 = 0; for viscosity: Falling or rolling sphere viscometry; for speed of sound: Sing-around technique in a fixed-path interferometer; for mass density: Vibrating tube method

Compound | viscosity ([1]; 278.15 K) [mPa·s] | speed of sound ([1]; 278.15 K) [m/s] | mass density ([1]; 278.15 K) [kg/m3] | viscosity ([1]; 298.15 K) [mPa·s] | speed of sound ([1]; 298.15 K) [m/s] | mass density ([1]; 298.15 K) [kg/m3] | viscosity ([1]; 318.15 K) [mPa·s] | speed of sound ([1]; 318.15 K) [m/s] | mass density ([1]; 318.15 K) [kg/m3] | speed of sound ([1]; 338.15 K) [m/s] | mass density ([1]; 338.15 K) [kg/m3] | viscosity ([1]; 338.15 K) [mPa·s] | viscosity ([2]; 278.15 K) [mPa·s] | speed of sound ([2]; 278.15 K) [m/s] | mass density ([2]; 278.15 K) [kg/m3] | viscosity ([2]; 298.15 K) [mPa·s] | speed of sound ([2]; 298.15 K) [m/s] | mass density ([2]; 298.15 K) [kg/m3] | viscosity ([2]; 318.15 K) [mPa·s] | speed of sound ([2]; 318.15 K) [m/s] | further results
CCCCCC[n+]1ccn(C)c1.O=S(=O)([N-]S(=O)(=O)C(F)(F)F)C(F)(F)F | 211.31 ± 10 | 1274.6 ± 0.66 | 1390.3 ± 0.19 | 70.46 ± 0.82 | 1226.8 ± 0.64 | 1371.64 ± 0.18 | 30.22 ± 0.24 | 1182 ± 0.62 | 1353.31 ± 0.17 | 1139.3 ± 0.61 | 1335.25 ± 0.17 | – | – | – | – | – | – | – | – | – | –
CCCC[n+]1ccn(C)c1.O=S(=O)([N-]S(=O)(=O)C(F)(F)F)C(F)(F)F | 139.82 ± 4.8 | 1273.8 ± 0.66 | 1453.69 ± 0.21 | 51.22 ± 0.12 | 1227.5 ± 0.64 | 1434.23 ± 0.21 | 24.36 ± 0.19 | 1184 ± 0.62 | 1415.13 ± 0.2 | 1142.7 ± 0.61 | 1396.35 ± 0.19 | 13.94 ± 0.11 | – | – | – | – | – | – | – | – | –
CCn1cc[n+](C)c1.O=S(=O)([N-]S(=O)(=O)C(F)(F)F)C(F)(F)F | 75.08 ± 1 | 1284.9 ± 0.66 | 1538.23 ± 0.25 | 32.02 ± 0.25 | 1240.1 ± 0.64 | 1517.76 ± 0.24 | 17.32 ± 0.14 | 1196.6 ± 0.63 | 1497.65 ± 0.23 | 1155.8 ± 0.61 | 1477.86 ± 0.22 | 10.82 ± 0.08 | – | – | – | – | – | – | – | – | –
CCO [ethanol] | 1.59 ± 0.01 | 1212.9 ± 0.64 | 802.39 ± 0.11 | 1.08 ± 0.01 | 1143.1 ± 0.61 | 785.32 ± 0.12 | 0.77 ± 0.01 | 1075.7 ± 0.58 | 767.84 ± 0.12 | 1009.4 ± 0.56 | 749.54 ± 0.13 | 0.56 ± 0.01 | – | – | – | – | – | – | – | – | –
CCO [ethanol] + CCCCCC[n+]1ccn(C)c1.O=S(=O)([N-]S(=O)(=O)C(F)(F)F)C(F)(F)F | – | – | – | – | – | – | – | – | – | – | – | – | 1.59 ± 0.01 | 1212.9 ± 0.64 | 802.39 ± 0.11 | 1.08 ± 0.01 | 1143.1 ± 0.61 | 785.32 ± 0.12 | 0.77 ± 0.01 | 1075.7 ± 0.58 | mass density ([2]; 318.15 K): 767.84 ± 0.12 kg/m3; speed of sound ([2]; 338.15 K): 1009.4 ± 0.56 m/s; mass density ([2]; 338.15 K): 749.54 ± 0.13 kg/m3
CCO [ethanol] + CCCC[n+]1ccn(C)c1.O=S(=O)([N-]S(=O)(=O)C(F)(F)F)C(F)(F)F | – | – | – | – | – | – | – | – | – | – | – | – | 1.59 ± 0.01 | 1212.9 ± 0.64 | 802.39 ± 0.11 | 1.08 ± 0.01 | 1143.1 ± 0.61 | 785.32 ± 0.12 | 0.77 ± 0.01 | 1075.7 ± 0.58 | mass density ([2]; 318.15 K): 767.84 ± 0.12 kg/m3; viscosity ([2]; 338.15 K): 0.56 ± 0.01 mPa·s; speed of sound ([2]; 338.15 K): 1009.4 ± 0.56 m/s; mass density ([2]; 338.15 K): 749.54 ± 0.13 kg/m3
CCO [ethanol] + CCn1cc[n+](C)c1.O=S(=O)([N-]S(=O)(=O)C(F)(F)F)C(F)(F)F | – | – | – | – | – | – | – | – | – | – | – | – | 1.59 ± 0.01 | 1212.9 ± 0.64 | 802.39 ± 0.11 | 1.08 ± 0.01 | 1143.1 ± 0.61 | 785.32 ± 0.12 | 0.77 ± 0.01 | 1075.7 ± 0.58 | mass density ([2]; 318.15 K): 767.84 ± 0.12 kg/m3; viscosity ([2]; 338.15 K): 0.56 ± 0.01 mPa·s; speed of sound ([2]; 338.15 K): 1009.4 ± 0.56 m/s; mass density ([2]; 338.15 K): 749.54 ± 0.13 kg/m3
